Measurements from paper PMC7758422, “Design, Synthesis, and Antitumor Activities Study of Stapled A4K14-Citropin 1.1 Peptides” (Frontiers in Chemistry, 2020).

Assay: on-resin all-hydrocarbon stapling by ring-closing metathesis of S5/S5 (i,i+4) or R8/S5 (i,i+7), Grubbs first-generation catalyst (0.45 mmol per 0.15 mmol resin, 3 equiv), then TFA/TIPS/phenol/H2O cleavage and RP-HPLC
Conditions: the molecule shown is the open-chain precursor, 33-membered ring, 1,2-dichloroethane, 25.0 °C, 4.0 h, 36 steps

Row | Structure (SMILES) | ring closure, overall yield [% yield]
1 | C=CCCCCCC[C@@](C)(NC(=O)CNC(C)=O)C(=O)N[C@@H](Cc1ccccc1)C(=O)N[C@@H](C)C(=O)N[C@H](C(=O)N[C@H](C(=O)N[C@@H](CCCCNC(=O)OC(C)(C)C)C(=O)N[C@@H](CCCCNC(=O)OC(C)(C)C)C(=O)N[C@@](C)(CCCC=C)C(=O)N[C@@H](C)C(=O)N[C@@H](COC(C)(C)C)C(=O)N[C@H](C(=O)N[C@H](C(=O)N[C@@H](CCCCNC(=O)OC(C)(C)C)C(=O)NCC(=O)N[C@@H](CC(C)C)C(N)=O)[C@@H](C)CC)C(C)C)[C@@H](C)CC)C(C)C | 63
2 | C=CCCCCCC[C@@](C)(NC(=O)[C@@H](NC(=O)[C@H](C)NC(=O)[C@H](Cc1ccccc1)NC(=O)[C@H](CC(C)C)NC(=O)CNC(C)=O)C(C)C)C(=O)N[C@@H](CCCCNC(=O)OC(C)(C)C)C(=O)N[C@@H](CCCCNC(=O)OC(C)(C)C)C(=O)N[C@H](C(=O)N[C@@H](C)C(=O)N[C@@H](COC(C)(C)C)C(=O)N[C@H](C(=O)N[C@@](C)(CCCC=C)C(=O)N[C@@H](CCCCNC(=O)OC(C)(C)C)C(=O)NCC(=O)N[C@@H](CC(C)C)C(N)=O)C(C)C)C(C)C | 62
